Each structure is given as a SMILES string.

Test system in one data set: not listed separately
Kind of data set: log P determination by HPLC (reversed-phase C 18), EEC Directive 79/831 Annex V.A8. The note with it: HPLC, pH 2.3, 43° C. It counts as physicochemical. As for the experimental part: The log P values given in the tables and Preparation Examples above are determined in accordance with EEC Directive 79/831 Annex V.A8 by HPLC (High Performance Liquid Chromatography) using a reversed-phase column (C 18). Temperature: 43° C. […]
Calibration was carried out using unbranched alkan-2-ones (having 3 to 16 carbon atoms) with known log P values (determination of the log P values by the retention times using linear interpolation between two successive […]).
On to `C=CCNC(=O)CCC(=O)c1ccc(-c2ccc(OC(F)(F)F)cc2)cc1` [XV-1, N-Allyl-4-oxo-4-[4′-(trifluoromethoxy)-1,1′-biphenyl-4-yl]butanamide], for which the “log P (pH 2.3)” value was 3.42. In the case of `O=C1CC[C@@]2(c3ccc(Br)cc3)OC[C@H](c3ccccc3)N12` [IX-2, (3S,7aS)-7a-(4-Bromophenyl)-3-phenyltetrahydropyrrolo[2,1-b][1,3],oxazol-5(6H)-one], the “log P (pH 2.3)” value is recorded as “log P (pH 2.3) = 3.36 (purity 92.3%)”.

Staying with this data set, now noted: HPLC, pH 2.3, 43° C.; read-out: log P (pH 2.3).
For the compound `CC(C)(C)OC(=O)N[C@H](CCC(=O)c1c(F)cccc1F)c1ccc(Br)cc1` [IV-2, tert-butyl (1R)-1-(4-bromophenyl)-4-(2,6-difluorophenyl)-4-oxobutylcarbamate], the chromatographic logP worked out at 4.22.

Turning to `CC(C)(C)OC(=O)N1C(=O)CC[C@@H]1c1ccc(-c2ccc(OC(F)(F)F)cc2)cc1` [V-1, tert-butyl (5R)-2-oxo-5-[4′-(trifluoromethoxy)-1,1′-biphenyl-4-yl]-1-pyrrolidine carboxylate], the chromatographic logP was found to be 4.32. For `Oc1ccc(-c2ccc([C@H]3CCC(c4c(F)cccc4F)=N3)cc2)cc1` [I-9], the chromatographic logP stood at 1.93. For the compound `CC(C)(C)OC(=O)N[C@H](CCC(=O)c1c(F)cccc1F)c1ccc(-c2ccc(OC(F)(F)F)cc2)cc1` [IV-1, tert-butyl (1R)-4-(2,6-difluorophenyl)-4-oxo-1-[4′-(trifluoromethoxy)-1,1′-biphenyl-4-yl]butylcarbamate], the chromatographic logP was 5.18.

Consider `CC(C)(C)OC(=O)N[C@H](CCC(=O)c1c(F)cccc1F)c1ccc(-c2ccc(C#N)cc2)cc1` [IV-4], for which the chromatographic logP amounted to 4.1.

The same data set, now with this note: reversed-phase C18 HPLC column, pH 2.3, HPLC, pH 2.3, 43° C.; read-out: log P (pH 2.3).
`Fc1cccc(F)c1C1=N[C@@H](c2ccc(-c3ccc(OC(F)(F)F)cc3)cc2)CC1` [I-3, (2R)-5-(2,6-difluorophenyl)-2-[4′-(trifluoromethoxy)-1,1′-biphenyl-4-yl]-3,4-dihydro-2H-pyrrole]: the chromatographic logP worked out at 4.08. As for `O=C1CC[C@H](c2ccc(Br)cc2)N1` [VII-2, (5R)-5-(4-Bromophenyl)-2-pyrrolidinone], the chromatographic logP is 3.54.

`O=C1CC[C@H](c2ccc(-c3ccc(OC(F)(F)F)cc3)cc2)N1[C@H](CO)c1ccccc1` [X-1, (5R)-1-[(1S)-2-Hydroxy-1-phenylethyl]-5-[4′-(trifluoromethoxy)-1,1′-biphenyl-4-yl]-2-pyrrolidinone]: the chromatographic logP amounted to 3.8.

As for `C=CCNC(=O)CC[C@H](O)c1ccc(-c2ccc(OC(F)(F)F)cc2)cc1` [XVI-1, (4S)—N-Allyl-4-hydroxy-4-[4′-(trifluoromethoxy)-1,1′-biphenyl-4-yl]butanamide], the chromatographic logP stood at 2.99. Take `CC(C)(C)OC(=O)N1C(=O)CC[C@@H]1c1ccc(-c2ccc(C#N)cc2)cc1` [V-4]: the chromatographic logP is 3.02. As to `C=CCN1C(=O)CC[C@@H]1c1ccc(-c2ccc(OC(F)(F)F)cc2)cc1` [XVII-1, (5R)-1-Allyl-5-[4′-(trifluoromethoxy)-1,1′-biphenyl-4-yl]-2-pyrrolidinone], the chromatographic logP turned out to be 3.88. Consider `O=C1CC[C@H](c2ccc(Br)cc2)N1[C@H](CO)c1ccccc1` [X-2, (5R)-5-(4-Bromophenyl)-1-[(1S)-2-hydroxy-1-phenylethyl]-2-pyrrolidinone], for which the chromatographic logP is 2.58. Consider `O=C1CC[C@H](c2ccc(-c3ccc(OC(F)(F)F)cc3)cc2)N1[C@H](CCl)c1ccccc1` [XI-1, (5R)-1-[(1S)-2-Chloro-1-phenylethyl]-5-[4′-(trifluoromethoxy)-1,1′-biphenyl-4-yl]-2-pyrrolidinone], for which the chromatographic logP came to 4.78.

`O=C1CC[C@H](c2ccc(Br)cc2)N1[C@H](CCl)c1ccccc1` [XI-2, (5R)-5-(4-Bromophenyl)-1-[(1S)-2-chloro-1-phenylethyl]-2-pyrrolidinone]: the chromatographic logP turned out to be 3.61. Take `CC(C)(C)OC(=O)N1C(=O)CC[C@@H]1c1ccc(Br)cc1` [V-2, tert-butyl (2R)-2-(4-bromophenyl)-5-oxo-1-pyrrolidinecarboxylate]: the chromatographic logP stood at 3.04. For `COC(=O)CCC(=O)c1ccc(-c2ccc(OC(F)(F)F)cc2)cc1` [VIII-a-1, Methyl-4-oxo-4-[4′-(trifluoromethoxy)-1,1′-biphenyl-4-yl]butanoate], the chromatographic logP came to 4.01. In the case of `O=C1CC[C@@]2(c3ccc(-c4ccc(OC(F)(F)F)cc4)cc3)OC[C@H](c3ccccc3)N12` [IX-1, (3S,7aS)-3-Phenyl-7a-[4′-(trifluoromethoxy)-1,1′-biphenyl-4-yl]tetrahydropyrrolo-[2,1-b][1,3]oxazol-5(6H)-one], the chromatographic logP stood at 4.55. For `C=CCNC(=O)CCC(=O)c1ccc(-c2ccc(OC(F)(F)F)cc2)cc1` [XV-1, N-Allyl-4-oxo-4-[4′-(trifluoromethoxy)-1,1′-biphenyl-4-yl]butanamide], the chromatographic logP stood at 3.34.

On to `O=C1CC[C@H](c2ccc(-c3ccc(OC(F)(F)F)cc3)cc2)N1` [VII-1, (5R)-5-[4′-(Trifluoromethoxy)-1,1′-biphenyl-4-yl]-2-pyrrolidinone], for which the chromatographic logP came out at 2.95. `N#Cc1ccc(-c2ccc([C@H]3CCC(c4c(F)cccc4F)=N3)cc2)cc1` [I-17]: the chromatographic logP came out at 2.85.

On to `C=C(c1ccccc1)N1C(=O)CC[C@@H]1c1ccc(Br)cc1` [XII-2, (5R)-5-(4-Bromophenyl)-1-(1-phenylvinyl)-2-pyrrolidinone], for which the chromatographic logP worked out at 3.18. Consider `Fc1cccc(F)c1C1=N[C@@H](c2ccc(Br)cc2)CC1` [I-15, (2R)-2-(4-bromophenyl)-5-(2,6-difluorophenyl)-3,4-dihydro-2H-pyrrole], for which the chromatographic logP turned out to be 2.74.

With `O=S(=O)(c1ccc(-c2ccc([C@H]3CCC(c4c(F)cccc4F)=N3)cc2)cc1)C(F)(F)F` [I-11, (2R)-5-(2,6-difluorophenyl)-2-{4′-[(trifluoromethyl)sulphonyl]-1,1′-biphenyl-4-yl}-3,4-dihydro-2H-pyrrole], the chromatographic logP was 3.92. For the compound `C=C(c1ccccc1)N1C(=O)CC[C@@H]1c1ccc(-c2ccc(OC(F)(F)F)cc2)cc1` [XII-1, (5R)-1-(1-Phenylvinyl)-5-[4′-(trifluoromethoxy)-1,1′-biphenyl-4-yl]-2-pyrrolidinone], the chromatographic logP worked out at 4.35.

The same data set, now with this note: reversed-phase C18 HPLC column, pH 2.3, pH not given; read-out: log p/m.p.: log P.
For `O=S(=O)(c1ccc(-c2ccc([C@H]3CCC(c4c(F)cccc4F)=N3)cc2)cc1)C(F)(F)F` [I-11, (2R)-5-(2,6-difluorophenyl)-2-{4′-[(trifluoromethyl)sulphonyl]-1,1′-biphenyl-4-yl}-3,4-dihydro-2H-pyrrole], the chromatographic logP came out at 3.92.

Still in this data set, the particulars now being: reversed-phase C18 HPLC column, pH 7, HPLC, pH 7; read-out: log P (pH 7).
On to `CC1(C)OB(c2ccc([C@H]3CCC(c4c(F)cccc4F)=N3)cc2)OC1(C)C` [I-b-1, (2R)-5-(2,6-difluorophenyl)-2-[4-(4,4,5,5-tetramethyl-1,3,2-dioxaborolan-2-yl)phenyl]-3,4-dihydro-2H-pyrrole], for which the chromatographic logP was 4.47.

In the next data set the test system is Plutella xylostella. In words: Plutella test (cabbage leaves, dip). It counts as in vivo. The note with it: 0.01 ppm. As for the experimental part:
(§1) [table] To produce a suitable preparation of active compound, 1 part by weight of active compound is mixed with the stated amounts of solvent and emulsifier, and the concentrate is diluted with emulsifier-containing water to the desired concentration. Cabbage leaves (Brassica oleracea) are treated by being dipped into the preparation of active compound of the desired concentration and are populated with caterpillars of the diamond back moth (Plutella xylostella) while the leaves are still moist. After the desired period of time, the kill in % is determined. 100% means that all caterpillars have been killed; 0% means that none of the caterpillars have been killed.
For the compound `Fc1cccc(F)c1C1=N[C@@H](c2ccc(-c3ccc(OC(F)(F)F)cc3)cc2)CC1` [drawing 72], the “Kill rate in % after 6 d” value stood at 100%. For `Fc1cccc(F)c1C1=NC(c2ccc(-c3ccc(OC(F)(F)F)cc3)cc2)CC1` (stereo not drawn) [drawing 71], the “Kill rate in % after 6 d” value is listed as 0%.

Still in this data set, the particulars now being: 0.0128 ppm.
For the compound `Fc1cccc(F)c1C1=NC(c2ccc(-c3ccc(SC(F)(F)F)cc3)cc2)CC1` (stereo not drawn) [drawing 74], the “Kill rate in % after 6 d” value is reported as 10%.

Consider `Fc1cccc(F)c1C1=N[C@@H](c2ccc(-c3ccc(SC(F)(F)F)cc3)cc2)CC1` [drawing 75], for which the “Kill rate in % after 6 d” value is on record as 45%.

The same data set, now with this note: 1.6 ppm.
As for `Fc1cccc(F)c1C1=N[C@H](c2ccc(-c3ccc(SC(F)(F)F)cc3)cc2)CC1` [drawing 76], the “Kill rate in % after 6 d” value is recorded as 5%. Still for that read-out and setting: the result for `Fc1cccc(F)c1C1=N[C@H](c2ccc(-c3ccc(OC(F)(F)F)cc3)cc2)CC1` [drawing 73] reads 0%.

In a further data set the test system is Spodoptera exigua. Kind of data set: Spodoptera exigua test (cabbage leaves, dip). It counts as in vivo. To be noted: 0.04 ppm. As for the experimental part: as §1, with “army worm (Spodoptera exigua)” for “diamond back moth (Plutella xylostella)”
Consider `Fc1cccc(F)c1C1=NC(c2ccc(-c3ccc(OC(F)(F)F)cc3)cc2)CC1` (stereo not drawn) [drawing 80], for which the “Kill rate in % after 6 d” value was 55%. Turning to `Fc1cccc(F)c1C1=N[C@@H](c2ccc(-c3ccc(OC(F)(F)F)cc3)cc2)CC1` [drawing 81], the “Kill rate in % after 6 d” value was found to be 100%.

The data set is the same for the next values; noted with them: 1.6 ppm.
Consider `Fc1cccc(F)c1C1=N[C@H](c2ccc(-c3ccc(OC(F)(F)C(F)F)cc3)cc2)CC1`, for which the “Kill rate in % after 6 d” value is recorded as 0%. For `Fc1cccc(F)c1C1=N[C@@H](c2ccc(-c3ccc(SC(F)(F)F)cc3)cc2)CC1` [drawing 83], the “Kill rate in % after 6 d” value is 100%. With `Fc1cccc(F)c1C1=N[C@H](c2ccc(-c3ccc(SC(F)(F)F)cc3)cc2)CC1` [drawing 84], the “Kill rate in % after 6 d” value was found to be 0%.

The data set is the same for the next values; noted with them: 8 ppm.
As to `Fc1cccc(F)c1C1=N[C@H](c2ccc(-c3ccc(OC(F)(F)F)cc3)cc2)CC1` [drawing 82], the “Kill rate in % after 6 d” value is given as 0%.

The next data set has as its system Spodoptera frugiperda. In words: Spodoptera frugiperda test (cabbage leaves, dip). It counts as in vivo. The note with it: 0.02 ppm. As for the experimental part: as §1, with “army worm (Spodoptera frugiperda)” for “diamond back moth (Plutella xylostella)”
In the case of `Fc1cccc(F)c1C1=N[C@@H](c2ccc(-c3ccc(OC(F)(F)F)cc3)cc2)CC1` [drawing 89], the “Kill rate in % after 6 d” value came out at 100%.

The same data set, now with this note: 1.6 ppm.
In the case of `Fc1cccc(F)c1C1=N[C@H](c2ccc(-c3ccc(SC(F)(F)F)cc3)cc2)CC1` [drawing 93], the “Kill rate in % after 6 d” value was 10%.

For the origin of these results see patent US20090012144A1 (priority 2000, published 2009).
